# Key:
# [1] = Qualitative non-targeted LC-HRMS analysis of AR compounds in rat plasma after oral AR or MBST; format: in vivo; settings: for AR-Treated Rat Plasma (detection of compound): rat plasma 1 h after oral 2 g/kg AR, n = 1, LC-HRMS; for MBST-Treated Rat Plasma (detection of compound): rat plasma 1 h after oral 2 g/kg MBST, n = 3, LC-HRMS
# Experimental: Extract powders of AR or MBST were suspended in distilled water and orally administered to rats having fasted for approximately 16 h. The dose of AR was set at 2 g/kg, and the MBST doses were set at 1 and 2 g/kg. 1 g/kg MBST contained 578 µg/kg, 147 µg/kg, 226 µg/kg, 426 µg/kg asarinin, sesamin, methyl kakuol, and amide A, respectively. The doses were chosen based on a previous pharmacological study of MBST using rats.
# According to previous pharmacokinetic studies of herbal medicines, many of the components were quickly absorbed into the bloodstream, thereby providing the rationale for a sampling time at 1 h. Blood was centrifuged at 1200× g at 4 °C for 30 min to obtain plasma; then, the sample was stored at −80 °C until LC-HRMS analysis. […]
# The plasma samples were collected at 1 h after MBST administration in case of both the qualitative (non-targeted) analysis and the quantitative (targeted) analysis.
# The plasma samples of AR- or MBST-treated rats collected at 1 h post-administration were pretreated by deproteinization using methanol before the LC-HRMS analysis as follows: 100 µL plasma sample was mixed with 500 µL methanol, and the resultant solution was vortexed for 2 min. The mixture was centrifuged at 7000× g at 4 °C for 5 min. The supernatant was dried using a centrifugal evaporator, and the dried residue was dissolved in 100 μL of the initial LC mobile phase which is composed of 0.1 vol% formic acid in water/acetonitrile (99.9/0.1, v/v) and recentrifuged at 7000× g at 4 °C for 5 min. Finally, a 5 μL aliquot of the supernatant was injected into the LC-HRMS system comprised of an Acquity Ultra-Performance Liquid Chromatography System (Waters, Milford, MA, USA) and a Xevo G2-XS quadrupole time-of-flight MS (Waters) and was chromatographically separated using an ACQUITY UPLC HSS T3 column (2.1 × 150 mm I.D., 1.8-μm particle size; Waters) with an ACQUITY UPLC HSS T3 VanGuard Pre-column (2.1 mm × 5 mm I.D., 1.8-μm particle size; Waters) at 40 °C. The mobile phase consisted of solution A (0.1% formic acid, v/v) and solution B (acetonitrile) with a gradient of solution B (0.1%, 0 min; 99%, 24 min; v/v) at a flow rate of 0.4 mL/min. The analysis of the mass spectrometer fit with an electrospray ionization probe with sensitivity mode was performed for both the positive and negative ion mode. The resolution of the mass spectrometer was set at >20,000. For MS^E experiments, two acquisition functions with different collision energies were created: a low-energy function with a collision energy of 6 eV and a high-energy function with collision energy ranging from 15 to 40 eV.
# human TRPV4 = target: T1, human TRPV4 (Homo sapiens, UniProt Q9HBA0); experiment: Ca2+ influx assay in TRPV4-expressing T-REx-293 cells; format: cell-based; settings: 10 µmol/L test compound, relative to 4 µmol/L GSK1016790A; for activation at 10 µM: T-REx-293, read-out: % of Activation Compared to Positive Control against Each Subfamily of TRP Channel TRPV4
# T1 construct: Each full-length human TRPA1, TRPV1, TRPV4, and TRPM8 coding regions were introduced into a pcDNA4/TO vector; expressed in transfected cells; host or cells: T-REx-293 cells (tetracycline-induced, pcDNA4/TO vector)
# T1 sequence (Q9HBA0 whole entry): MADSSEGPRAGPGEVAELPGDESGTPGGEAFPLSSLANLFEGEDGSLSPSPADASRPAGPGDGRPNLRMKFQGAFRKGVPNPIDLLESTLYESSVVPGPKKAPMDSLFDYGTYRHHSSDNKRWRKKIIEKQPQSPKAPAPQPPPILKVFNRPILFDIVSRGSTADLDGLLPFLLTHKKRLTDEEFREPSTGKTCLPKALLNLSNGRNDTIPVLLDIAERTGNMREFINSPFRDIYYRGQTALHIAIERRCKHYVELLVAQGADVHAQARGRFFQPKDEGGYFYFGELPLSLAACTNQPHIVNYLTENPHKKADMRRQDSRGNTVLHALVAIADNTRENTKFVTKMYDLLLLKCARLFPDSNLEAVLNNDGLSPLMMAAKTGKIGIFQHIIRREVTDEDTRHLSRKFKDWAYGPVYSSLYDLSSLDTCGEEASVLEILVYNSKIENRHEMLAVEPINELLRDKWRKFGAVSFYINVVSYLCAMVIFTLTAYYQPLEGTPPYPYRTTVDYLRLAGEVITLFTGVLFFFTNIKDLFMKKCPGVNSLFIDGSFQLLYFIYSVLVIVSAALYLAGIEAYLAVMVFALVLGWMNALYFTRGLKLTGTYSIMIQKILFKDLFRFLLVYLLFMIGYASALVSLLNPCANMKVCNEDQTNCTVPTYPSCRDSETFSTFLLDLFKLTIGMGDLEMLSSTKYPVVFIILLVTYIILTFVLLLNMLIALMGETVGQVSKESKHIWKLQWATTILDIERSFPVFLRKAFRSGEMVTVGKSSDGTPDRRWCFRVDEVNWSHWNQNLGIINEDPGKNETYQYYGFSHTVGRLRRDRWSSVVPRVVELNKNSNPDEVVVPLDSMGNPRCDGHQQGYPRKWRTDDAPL
# Experimental: (§1) Each full-length human TRPA1, TRPV1, TRPV4, and TRPM8 coding regions were introduced into a pcDNA4/TO vector (Thermo Fisher Scientific, Waltham, MA, USA) and transfected into T-REx-293 cells (Thermo Fisher Scientific) to obtain stable cell lines expressing human TRPA1, TRPV1, TRPV4, and TRPM8. Cells were cultured in DMEM with 10% FBS, 4 mmol/L L-glutamine, and penicillin/streptomycin.
# (§2) Cells were suspended in medium with 1 µg/mL tetracycline and seeded in poly-D-lysine coated 96-well plate at 2.5 × 10^4 cells/well. After overnight culture, the cells were used for Ca^2+ influx assay.
# (§3) The Ca^2+ influx assay was performed using a FLIPR Calcium 5 Assay Kit (Molecular Devices, Sunnyvale, CA, USA) according to previously reported methods with minor modifications. In brief, cells were incubated with 80 µL Ca^2+-chelating dye dissolved in assay buffer at pH 7.4 (Hanks’ Balanced Salt Solution containing 20 mmol/L of N-2-hydroxyethylpiperazine-N’-2-ethanesulfonic acid) at room temperature for 30 min. The plates were assayed using a FlexStation 3 Microplate Reader (Molecular Devices). The fluorescence intensity was traced entirely for 80 s. The baseline of fluorescence was measured for 20 s before adding 20 µL of test compound (final concentration, 10 µmol/L). The response was expressed as percentage activation using the relative fluorescence units (RFU) (% activation = 100 × ((RFUmax − RFUbaseline)/RFUbaseline) − 100). Furthermore, the activities of each test compound against several subfamilies of TRP channels were represented as the relative enhancement of Ca^2+ influx of each positive control, indicated as follows: 20 µmol/L of allyl isothiocyanate (an agonist of TRPA1), 2 µmol/L of capsaicin (an agonist of TRPV1), 4 µmol/L of GSK1016790A (an agonist of TRPV4), and 20 µmol/L of icilin (an agonist of TRPM8). The dose–response curve was fitted to the sigmoidal dose-response equation (top, the max response of each compound), and EC50 values were calculated using GraphPad Prism 7 software (GraphPad, San Diego, CA, USA).
# human TRPM8 = target: T2, human TRPM8 (Homo sapiens, UniProt Q7Z2W7); experiment: Ca2+ influx assay in TRPM8-expressing T-REx-293 cells; format: cell-based; settings: 10 µmol/L test compound, relative to 20 µmol/L icilin; for activation at 10 µM: T-REx-293, read-out: % of Activation Compared to Positive Control against Each Subfamily of TRP Channel TRPM8
# T2 construct: Each full-length human TRPA1, TRPV1, TRPV4, and TRPM8 coding regions were introduced into a pcDNA4/TO vector; expressed in transfected cells; host or cells: T-REx-293 cells (tetracycline-induced, pcDNA4/TO vector)
# T2 sequence (Q7Z2W7 whole entry): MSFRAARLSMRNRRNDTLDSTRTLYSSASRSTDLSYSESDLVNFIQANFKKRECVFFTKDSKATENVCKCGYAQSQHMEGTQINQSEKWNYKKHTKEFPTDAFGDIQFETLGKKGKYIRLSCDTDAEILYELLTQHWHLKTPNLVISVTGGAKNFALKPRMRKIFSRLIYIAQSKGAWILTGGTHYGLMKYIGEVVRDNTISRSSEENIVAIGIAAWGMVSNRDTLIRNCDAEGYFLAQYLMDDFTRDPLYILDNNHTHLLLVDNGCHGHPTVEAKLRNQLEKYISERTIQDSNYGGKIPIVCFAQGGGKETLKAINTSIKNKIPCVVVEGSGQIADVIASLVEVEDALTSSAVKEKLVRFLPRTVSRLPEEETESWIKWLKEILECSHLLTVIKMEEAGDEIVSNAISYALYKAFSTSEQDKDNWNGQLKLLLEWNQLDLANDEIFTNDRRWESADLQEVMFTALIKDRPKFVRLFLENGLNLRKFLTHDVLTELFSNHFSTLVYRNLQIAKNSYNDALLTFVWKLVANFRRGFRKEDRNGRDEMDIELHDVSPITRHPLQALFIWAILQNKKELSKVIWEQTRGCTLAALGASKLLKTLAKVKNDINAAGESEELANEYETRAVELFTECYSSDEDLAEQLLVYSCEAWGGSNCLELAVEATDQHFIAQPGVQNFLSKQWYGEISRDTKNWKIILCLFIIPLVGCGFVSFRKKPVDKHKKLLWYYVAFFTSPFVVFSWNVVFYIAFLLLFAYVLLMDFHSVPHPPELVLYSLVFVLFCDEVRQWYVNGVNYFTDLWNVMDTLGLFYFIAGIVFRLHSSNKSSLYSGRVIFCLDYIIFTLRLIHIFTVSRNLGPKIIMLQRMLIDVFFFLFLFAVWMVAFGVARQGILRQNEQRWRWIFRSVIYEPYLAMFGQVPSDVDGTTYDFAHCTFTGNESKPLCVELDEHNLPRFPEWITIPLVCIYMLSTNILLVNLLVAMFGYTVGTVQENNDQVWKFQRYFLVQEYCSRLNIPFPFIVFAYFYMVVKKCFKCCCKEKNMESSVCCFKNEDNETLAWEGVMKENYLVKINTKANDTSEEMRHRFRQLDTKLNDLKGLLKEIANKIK
# Experimental: as §1, §2, §3
# human TRPV1 = target: T3, human TRPV1 (Homo sapiens, UniProt Q8NER1); experiment: Ca2+ influx assay in TRPV1-expressing T-REx-293 cells; format: cell-based; settings: 10 µmol/L test compound, relative to 2 µmol/L capsaicin; for activation at 10 µM: T-REx-293, read-out: % of Activation Compared to Positive Control against Each Subfamily of TRP Channel TRPV1
# T3 construct: Each full-length human TRPA1, TRPV1, TRPV4, and TRPM8 coding regions were introduced into a pcDNA4/TO vector; expressed in transfected cells; host or cells: T-REx-293 cells (tetracycline-induced, pcDNA4/TO vector)
# T3 sequence (Q8NER1 whole entry): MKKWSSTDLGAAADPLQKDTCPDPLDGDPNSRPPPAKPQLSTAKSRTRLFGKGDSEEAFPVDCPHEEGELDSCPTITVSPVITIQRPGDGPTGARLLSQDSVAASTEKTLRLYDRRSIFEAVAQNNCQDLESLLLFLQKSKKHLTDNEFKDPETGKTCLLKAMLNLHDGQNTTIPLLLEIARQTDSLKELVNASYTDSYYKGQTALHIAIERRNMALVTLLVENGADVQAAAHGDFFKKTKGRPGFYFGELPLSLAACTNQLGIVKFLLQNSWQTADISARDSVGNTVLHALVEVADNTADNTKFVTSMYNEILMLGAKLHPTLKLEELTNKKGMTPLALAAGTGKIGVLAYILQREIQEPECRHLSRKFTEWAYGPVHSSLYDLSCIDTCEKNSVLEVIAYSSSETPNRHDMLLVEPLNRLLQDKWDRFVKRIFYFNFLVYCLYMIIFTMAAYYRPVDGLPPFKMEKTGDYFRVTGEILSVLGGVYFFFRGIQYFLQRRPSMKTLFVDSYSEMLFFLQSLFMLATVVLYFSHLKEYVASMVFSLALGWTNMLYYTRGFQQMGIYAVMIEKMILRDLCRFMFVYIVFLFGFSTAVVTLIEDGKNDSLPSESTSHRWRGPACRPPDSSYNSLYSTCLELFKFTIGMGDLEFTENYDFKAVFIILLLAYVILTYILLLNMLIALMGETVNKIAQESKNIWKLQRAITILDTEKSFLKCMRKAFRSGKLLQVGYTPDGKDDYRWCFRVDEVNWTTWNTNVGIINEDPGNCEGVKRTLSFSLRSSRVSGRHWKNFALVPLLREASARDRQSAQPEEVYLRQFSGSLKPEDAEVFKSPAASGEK
# Experimental: as §1, §2, §3
# human TRPA1 = target: T4, human TRPA1 (Homo sapiens, UniProt O75762); experiment: Ca2+ influx assay in TRPA1-expressing T-REx-293 cells; format: cell-based; settings: 10 µmol/L test compound, relative to 20 µmol/L allyl isothiocyanate; for activation at 10 µM: T-REx-293, read-out: % of Activation Compared to Positive Control against Each Subfamily of TRP Channel TRPA1
# T4 construct: Each full-length human TRPA1, TRPV1, TRPV4, and TRPM8 coding regions were introduced into a pcDNA4/TO vector; expressed in transfected cells; host or cells: T-REx-293 cells (tetracycline-induced, pcDNA4/TO vector)
# T4 sequence (O75762 whole entry): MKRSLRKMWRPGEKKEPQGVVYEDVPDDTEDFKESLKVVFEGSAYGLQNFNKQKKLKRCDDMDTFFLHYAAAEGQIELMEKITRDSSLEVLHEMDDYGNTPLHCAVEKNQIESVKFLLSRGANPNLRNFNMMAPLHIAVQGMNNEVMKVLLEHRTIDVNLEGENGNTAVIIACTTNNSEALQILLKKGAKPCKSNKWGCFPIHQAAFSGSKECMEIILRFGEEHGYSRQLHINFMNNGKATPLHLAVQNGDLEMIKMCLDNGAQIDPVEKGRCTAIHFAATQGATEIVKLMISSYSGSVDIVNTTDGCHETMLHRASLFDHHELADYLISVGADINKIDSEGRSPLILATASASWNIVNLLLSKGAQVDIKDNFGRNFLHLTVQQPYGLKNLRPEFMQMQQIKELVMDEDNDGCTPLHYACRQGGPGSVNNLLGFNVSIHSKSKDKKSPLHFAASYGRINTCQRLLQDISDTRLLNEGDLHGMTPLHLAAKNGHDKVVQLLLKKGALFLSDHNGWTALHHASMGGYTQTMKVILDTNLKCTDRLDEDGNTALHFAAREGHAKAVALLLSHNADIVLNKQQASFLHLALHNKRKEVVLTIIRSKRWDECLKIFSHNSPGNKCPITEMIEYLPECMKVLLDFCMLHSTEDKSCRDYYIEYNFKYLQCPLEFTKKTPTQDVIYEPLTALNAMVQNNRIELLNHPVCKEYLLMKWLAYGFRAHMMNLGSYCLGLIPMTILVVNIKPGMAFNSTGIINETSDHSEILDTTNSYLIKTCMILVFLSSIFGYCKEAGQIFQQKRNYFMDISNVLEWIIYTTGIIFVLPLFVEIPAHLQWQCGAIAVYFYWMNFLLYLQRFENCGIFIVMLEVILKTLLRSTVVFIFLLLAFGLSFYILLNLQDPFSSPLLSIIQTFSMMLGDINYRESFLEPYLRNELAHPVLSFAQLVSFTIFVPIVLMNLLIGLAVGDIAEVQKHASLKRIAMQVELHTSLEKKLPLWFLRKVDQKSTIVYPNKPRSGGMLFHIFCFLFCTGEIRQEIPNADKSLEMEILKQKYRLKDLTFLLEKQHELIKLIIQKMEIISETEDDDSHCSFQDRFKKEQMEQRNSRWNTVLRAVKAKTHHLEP
# Experimental: as §1, §2, §3
Molecule,% of Activation Compared to Positive Control against Each Subfamily of TRP Channel TRPV4 (human TRPV4),% of Activation Compared to Positive Control against Each Subfamily of TRP Channel TRPM8 (human TRPM8),% of Activation Compared to Positive Control against Each Subfamily of TRP Channel TRPV1 (human TRPV1),% of Activation Compared to Positive Control against Each Subfamily of TRP Channel TRPA1 (human TRPA1),activation at 10 µM (human TRPV4),activation at 10 µM (human TRPM8),activation at 10 µM (human TRPV1),activation at 10 µM (human TRPA1),other results
"CC=CC=CCCC=CC=CC(=O)NCC(C)C (single isomer, unassigned) [N-Isobutyl-2,4,8,10-dodecatetraenamide isomer]",–,–,–,–,–,–,–,–,AR-Treated Rat Plasma (detection of compound) [1]: + (The number of plus signs represents the sample number in which the compound was detected among AR-treated rat plasma (n = 1) and MBST-treated rat plasma (n = 3)); MBST-Treated Rat Plasma (detection of compound) [1]: + + + (The number of plus signs represents the sample number in which the compound was detected among AR-treated rat plasma (n = 1) and MBST-treated rat plasma (n = 3))
"Oc1ccc(C2OCC3C(c4ccc5c(c4)OCO5)OCC23)cc1O (stereo not drawn) [(7α,7′β,8α,8′α)-3,4-Methylenedioxy-3′,4′-dihydroxy-7,9′:7′,9-diepoxylignane]",–,–,–,–,–,–,–,–,AR-Treated Rat Plasma (detection of compound) [1]: + (The number of plus signs represents the sample number in which the compound was detected among AR-treated rat plasma (n = 1) and MBST-treated rat plasma (n = 3))
COc1cc(O)cc2c1cc([N+](=O)[O-])c1c(C(=O)O)cc3c(c12)OCO3 [Aristolochic acid Iva],–,–,–,–,–,–,–,–,AR-Treated Rat Plasma (detection of compound) [1]: + (The number of plus signs represents the sample number in which the compound was detected among AR-treated rat plasma (n = 1) and MBST-treated rat plasma (n = 3)); MBST-Treated Rat Plasma (detection of compound) [1]: + + + (The number of plus signs represents the sample number in which the compound was detected among AR-treated rat plasma (n = 1) and MBST-treated rat plasma (n = 3))
CCN1C[C@]2(COC)[C@H](O)C[C@H](OC)[C@@]34[C@@H]5C[C@@]6(O)[C@H](OC(=O)c7ccccc7)[C@@H]5[C@@](O)([C@@H]([C@H](OC)[C@H]23)[C@@H]14)[C@@H](O)[C@@H]6OC [Benzoylaconitine],0.0%,3.6%,−0.2%,3%,–,–,–,–,–
O.Oc1cc(O)c2c(c1)O[C@H](c1ccc(O)c(O)c1)[C@@H](O)C2 [Catechin],0.3%,4.0%,−0.3%,6%,–,–,–,–,–
"CN[C@@H](C)[C@H](O)c1ccccc1 [Ephedrine, (1R,2S)-(−)-Ephedrine, reference compound]",–,–,–,–,-0.4%,3.2%,-0.5%,3%,–
Oc1cc(O)c2c(c1)O[C@H](c1ccc(O)c(O)c1)[C@H](O)C2 [Epicatechin],–,–,–,–,0.6%,4.2%,0%,6%,–
Oc1cc(O)c2c(c1)O[C@H](c1cc(O)c(O)c(O)c1)[C@H](O)C2 [Epigallocatechin],–,–,–,–,0.1%,4.8%,-0.2%,2%,–
C=CCc1ccc(OC)cc1 [Estragole],–,–,–,–,–,–,–,–,AR-Treated Rat Plasma (detection of compound) [1]: + (The number of plus signs represents the sample number in which the compound was detected among AR-treated rat plasma (n = 1) and MBST-treated rat plasma (n = 3))
O=C(O)CNC(=O)c1ccccc1 [Hippuric acid],–,–,–,–,2.8%,7.5%,1%,13%,–
C=C1[C@H]2C[C@@H]3[C@H]4N5C[C@@]6(C)[C@H]7[C@@H]5C[C@]3([C@@H]1O)[C@@](O)(C2)[C@]74C[C@@H](OC(=O)c1ccccc1)[C@@H]6O [Ignavine],−0.1%,1.8%,−0.2%,2%,–,–,–,–,–
O=c1cc(-c2ccc(O)cc2)oc2cc(O)c([C@@H]3O[C@H](CO)[C@@H](O)[C@H](O)[C@H]3O)c(O)c12 [Isovitexin],–,–,–,–,2.3%,4.3%,0.2%,18%,–
CC(C(O)c1ccccc1)[N+](C)(C)[O-] (centres unmarked) [Methylephedrine N-oxide],1.8%,4.5%,0.3%,21%,–,–,–,–,–
"CN[C@@H](C)[C@@H](O)c1ccccc1 [Pseudoephedrine, (S,S)-(+)-pseudoephedrine, reference compound]",–,–,–,–,-0.3%,2.8%,-0.2%,4%,–
C/C=C/C=C\CC/C=C/C(=O)NCC(C)C [Spilanthol],–,–,–,–,–,–,–,–,"Detection in plasma of rats treated with AR or MBST (non-targeted analysis) ([1]; rat, in vivo, po): not detected"
O=c1cc(-c2ccc(O)cc2)oc2c([C@@H]3O[C@H](CO)[C@@H](O)[C@H](O)[C@H]3O)c(O)c([C@@H]3O[C@H](CO)[C@@H](O)[C@H](O)[C@H]3O)c(O)c12 [Vicenin-2],5.0%,6.5%,1.8%,25%,–,–,–,–,–
"(1R,2S)-(−)-N-methylephedrine [reference compound]",−0.1%,3.6%,−0.4%,3%,–,–,–,–,–
Neoline,0.5%,5.0%,−0.4%,5%,–,–,–,–,–

# Source: publication PMC7570662, “In Vivo Pharmacokinetic Analysis Utilizing Non-Targeted and Targeted Mass Spectrometry and In Vitro Assay against Transient Receptor Potential Channels of Maobushisaishinto and Its Constituent Asiasari Radix” (Molecules, 2020)
